pIC50: −log10 of the molar value.
Key:
Assay type in all cases: functional, cell-based
[1] = system: CTLL-2; experiment: Cytotoxicity against mouse CTLL-2 cells assessed as inhibition of cell viability incubated for 72 hrs by CCK8 assay; conditions: CTLL-2, 72 h
[2] = system: HepG2; experiment: Cytotoxicity against human HepG2 cells assessed as inhibition of cell viability incubated for 72 hrs by CCK8 assay; conditions: HepG2, 72 h
[3] = system: THP-1; experiment: Cytotoxicity against human THP-1 cells assessed as inhibition of cell viability incubated for 72 hrs by CCK8 assay; conditions: THP-1, 72 h
[4] = system: NRK-52E; experiment: Cytotoxicity against rat NRK-52E cells assessed as inhibition of cell viability incubated for 72 hrs by CCK8 assay
[5] = system: HL-60; experiment: Cytotoxicity against human HL-60 cells assessed as inhibition of cell viability incubated for 72 hrs by CCK8 assay; conditions: HL-60, 72 h
[6] = system: IEC-6; experiment: Cytotoxicity against rat IEC-6 cells assessed as inhibition of cell viability incubated for 72 hrs by CCK8 assay; conditions: IEC-6, 72 h
[7] = system: RAW264.7; experiment: Cytotoxicity against mouse RAW264.7 cells assessed as inhibition of cell viability incubated for 72 hrs by CCK8 assay; conditions: RAW264.7, 72 h

## C/C=C/C[C@@H](C)[C@@H](O)[C@H]1C(=O)N[C@@H](CC)C(=O)N(C)CC(=O)N(C)[C@@H](CC(C)C)C(=O)N[C@@H](C(C)C)C(=O)N(C)[C@@H](CC(C)C)C(=O)N[C@@H](C)C(=O)N[C@H](C)C(=O)N(C)[C@@H](CC(C)C)C(=O)N(C)[C@@H](CC(C)C)C(=O)N(C)[C@@H](C(C)C)C(=O)N1C [CYCLOSPORINE]
[1]
  pIC50: 5.57
[2]
  pIC50: 4.93
[3]
  pIC50: 5.36
[4]
  pIC50: 4.45
[5]
  pIC50: 5.09
[6]
  pIC50: 5.04
[7]
  pIC50: 4.85

— ChEMBL document CHEMBL6177973, “A Novel Compound 3a-M1, from Metabolites of Sinomenine Derivative 3a, Exerts Potent Anti-Aplastic Anemia Activity via IP3R/ORAI-Mediated CTL Ferroptosis” (J Med Chem, 2025)
